Data from patent publication US20050032912A1, “Anaesthetic compositions and method for their administration” (priority 2001, published 2005).
“Also recorded” adds a separate entry of the source.

Assays:
[1] = Solubilisation of propofol in aqueous poloxamer solution (micellar)
[2] = cited from earlier work
[3] = Solubility in water; assay type: physicochemical
Description: Other anaesthetic agents are administered to the patient by means of injection. Although generally less desirable than inhaled agents for reasons of ease of administration and the maintenance of a controlled amount of the anaesthetic composition, these are used in an variety of applications. For example, propofol is a widely used anaesthetic administered to the patient by injection. The anaesthetic agents is propofol contained in an appropriate formulation. […] Propofol must be thoroughly distributed in any anaesthetic formulation, and generally brought in to solution, because the administration of propofol itself in to the patient's blood stream can cause severe problems.
Preparation of anaesthetic formulations of the invention is generally straightforward.
In addition, some poloxamers require increased temperatures in order to satisfactorily micellise in water. In general, concentrations of poloxamer of about 10% w/v are useful in the present invention, but concentrations of poloxamers, whether single or mixed, can be selected as appropriate and will generally be above 0.5% and below about 20%. More preferred concentrations are from 5% to 15%. Some poloxamers will begin to gel at higher concentrations, and any poloxamer concentration that gels at body temperature, especially when in association with propofol, should be avoided for injection purposes.

[4] = system: patients who have Parkinson's disease; settings: cited from earlier work

CC(C)c1cccc(C(C)C)c1O [propofol]
maximum concentration of propofol ([1]; 10% w/w poloxamer in water, poloxamer P237): about 3.2% | propofol dissolved ([1]; poloxamer P407): 1.7% | half-life in the bloodstream ([2]; bloodstream, patient): nine | concentration in the body ([2]; three days after propofol anaesthesia): less than 0.02 mg/kg bodyweight | solubility in water (in words) [3]: virtually insoluble in water; also recorded: not readily soluble in water | duration of tremor reduction ([4]; after propofol anaesthesia): up to three | effect on tremors (in words) ([4]; after-effect of propofol anaesthesia): reduction in tremors
